{"source": "paper PMC8901636", "about": "“Preclinical studies of Flonoltinib Maleate, a novel JAK2/FLT3 inhibitor, in treatment of JAK2^V617F-induced myeloproliferative neoplasms” (Blood Cancer Journal, 2022)", "key": {"[1]": {"assay": "PK and tissue distribution after repeated oral administration in Ba/F3-EPOR-JAK2^V617F tumor-bearing mice", "type": "in vivo", "details": "for Kp: spleen and plasma, po"}, "[2]": {"tested_on": "Ba/F3-JAK2^V617F", "assay": "MTT assay for cell proliferation", "type": "cell-based, Murine", "details": "Mus musculus, 72 h, read-out: IC50(μM) ± SD, tumor cell proliferation", "quoted_text": "(§2) For in vitro inhibition assays, cells were seeded in 96-well culture plates with a density of 15,000–20,000 cells/well after the cells reached 70–90% confluence. […] MTT (3-(4, 5-dimethylthiazol-2-yl)-2, 5-diphenyltetrazolium bromide) (Cat. No. 1334GR001; BioFroxx) assay was conducted in order to examine viability. The IC50 values were fitted using GraphPad Prism 7.0."}, "[3]": {"molecular_target": "JAK3 (Homo sapiens, UniProt P52333)", "sequence (P52333 whole entry)": "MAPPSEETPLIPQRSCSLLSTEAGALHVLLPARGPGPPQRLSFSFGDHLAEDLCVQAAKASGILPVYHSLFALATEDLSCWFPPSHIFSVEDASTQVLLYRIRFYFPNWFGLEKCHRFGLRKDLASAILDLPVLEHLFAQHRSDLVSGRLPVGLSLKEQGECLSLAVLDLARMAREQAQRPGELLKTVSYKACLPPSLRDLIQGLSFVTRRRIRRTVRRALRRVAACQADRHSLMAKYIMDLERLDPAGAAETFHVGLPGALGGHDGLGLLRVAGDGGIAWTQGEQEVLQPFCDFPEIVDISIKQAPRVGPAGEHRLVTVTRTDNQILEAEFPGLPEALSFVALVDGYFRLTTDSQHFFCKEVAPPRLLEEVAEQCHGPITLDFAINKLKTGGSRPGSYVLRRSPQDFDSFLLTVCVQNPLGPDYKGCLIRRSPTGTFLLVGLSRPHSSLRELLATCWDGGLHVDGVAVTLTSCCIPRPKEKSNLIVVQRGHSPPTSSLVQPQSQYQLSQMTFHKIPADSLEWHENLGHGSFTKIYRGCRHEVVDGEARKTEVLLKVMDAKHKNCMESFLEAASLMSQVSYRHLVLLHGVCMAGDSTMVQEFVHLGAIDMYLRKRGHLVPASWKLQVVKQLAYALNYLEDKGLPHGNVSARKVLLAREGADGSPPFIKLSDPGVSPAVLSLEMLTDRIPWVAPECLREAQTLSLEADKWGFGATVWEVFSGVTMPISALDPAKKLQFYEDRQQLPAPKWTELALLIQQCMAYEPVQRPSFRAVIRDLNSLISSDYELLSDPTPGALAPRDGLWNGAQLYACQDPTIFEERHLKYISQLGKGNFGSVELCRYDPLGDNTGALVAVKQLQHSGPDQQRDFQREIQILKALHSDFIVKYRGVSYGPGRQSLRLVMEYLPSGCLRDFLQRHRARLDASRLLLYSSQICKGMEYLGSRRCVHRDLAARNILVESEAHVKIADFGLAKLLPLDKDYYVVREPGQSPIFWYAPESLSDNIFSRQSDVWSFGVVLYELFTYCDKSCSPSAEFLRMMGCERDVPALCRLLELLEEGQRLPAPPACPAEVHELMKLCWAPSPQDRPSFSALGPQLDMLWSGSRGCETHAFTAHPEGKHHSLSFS", "assay": "In vitro kinase assay"}, "[4]": {"tested_on": "Ba/F3-EPOR", "assay": "MTT assay for cell proliferation", "type": "cell-based, Murine", "details": "Mus musculus, 72 h, read-out: IC50(μM) ± SD, tumor cell proliferation", "quoted_text": "as §2"}, "[5]": {"tested_on": "Ba/F3-EPOR-JAK2^V617F cells", "assay": "PD study after repeated administration in Ba/F3-EPOR-JAK2^V617F tumor-bearing mice", "type": "in vivo", "procedure": "For Ba/F3-EPOR-JAK2^V617F driven malignant model after repeated administration, tumor-bearing mice were randomly divided into 8 groups on the 10th day. Mice were sacrificed at 0, 0.25, 0.5, 1, 4, 8, 12, and 24 hours after the last oral administration, and tissue samples were harvested to determine the distribution of FM and PK parameters by UFLC-MS/MS. For PD studies, we weighed the spleen, and analyzed the ratio of GFP^+ in the spleen and PB by flow cytometry, and test the downstream pathway protein p-STAT5 (Y694, Cat. No. Ab32364) via Western Blot.\nWith the decrease of drug concentration, the level of p-STAT5 increased to a certain extent, but 12 hours after administration, the level of p-STAT5 still decreased (Fig. 5C). […] 71 ± 7. 91%, respectively. In addition, the weight of spleen was 267.2 ± 56.8 mg in the untreated group and 167.5 ± 52.9 mg in the repeated administration groups (12 hours after the last administration) (Fig. 5D and Fig. S4E)."}, "[6]": {"tested_on": "Ba/F3-EPOR-JAK2^V617F cells", "assay": "Ba/F3-EPOR-JAK2^V617F malignancy mouse model", "details": "for spleen suppression rate: 16 days; for median survival time: vehicle 19 days"}, "[7]": {"tested_on": "MV-4-11", "assay": "MTT assay for cell proliferation", "type": "cell-based", "details": "Homo sapiens, MV4-11, 72 h, read-out: IC50(μM) ± SD, tumor cell proliferation", "quoted_text": "as §2"}, "[8]": {"tested_on": "JAK2^V617F", "assay": "JAK2^V617F bone marrow transplantation (BMT) myelofibrosis model", "type": "in vivo, BALB/c mice", "details": "for inhibition of splenomegaly: figure prints it with a minus sign over Spleen Wight (mg); for median survival time: vehicle 133.5 days; for BM Reticulin, fibrosis grade: bone marrow, WHO grading, vehicle MF-2"}, "[9]": {"tested_on": "FLT3 mutant tumor cell lines", "assay": "MTT assay for cell proliferation, summary of panel", "type": "cell-based", "details": "summary of Table S7", "procedure": "(§1) For in vitro inhibition assays, cells were seeded in 96-well culture plates with a density of 15,000–20,000 cells/well after the cells reached 70–90% confluence. After overnight incubation, the cells received a supplement of serial concentrations of FM and underwent 72 h incubation at 37 °C under 5% CO2. MTT (3-(4, 5-dimethylthiazol-2-yl)-2, 5-diphenyltetrazolium bromide) (Cat. No. 1334GR001; BioFroxx) assay was conducted in order to examine viability. The IC50 values were fitted using GraphPad Prism 7.0."}, "[10]": {"tested_on": "JAK2^V617F mutant cell lines", "assay": "MTT assay for cell proliferation, summary of panel", "type": "cell-based", "details": "summary of Table S7; read-out: anti-proliferative IC50 on JAK2^V617F mutant cell lines", "procedure": "as §1"}, "[11]": {"details": "BALB/c nude, mouse, spleen, oral, 30 mg/kg, repeated, read-out: FM concentration, Spleen"}, "[12]": {"details": "BALB/c nude, mouse, stomach, oral, 30 mg/kg, repeated, read-out: FM concentration, Stomach"}, "[13]": {"details": "BALB/c nude, mouse, Plasma, repeated oral 30 mg/kg"}, "[14]": {"details": "BALB/c nude, mouse, Spleen, repeated oral 30 mg/kg"}, "[15]": {"details": "before the last administration, 30 mg/kg repeated"}}, "note": "Where two headings read alike, the source gives them in different places.", "data": [{"smiles": "Cc1cnc(Nc2ccc(N3CCC(N(C)CCO)CC3)c(F)c2)nc1-c1cnn(C(C)C)c1", "note": "[FM, 2-((1-(2-fluoro-4-((4-(1-isopropyl-1H-pyrazol-4-yl)-5-methylpyrimidin-2-yl)amino)phenyl)piperidin-4-yl)(methyl)amino)ethan-1-ol]", "values": [{"measurement": "concentration at 24 h", "setting": "[1]; BALB/c nude, mouse, plasma, oral, 30 mg/kg, repeated, 24 h, read-out: FM concentration, Plasma", "value": "5.56 ± 4.97", "unit": "ng/mL"}, {"measurement": "Kp", "setting": "[1]; BALB/c nude, mouse, 30 mg/kg, AUC(0–24h) of spleen higher than that of plasma, repeated oral 30 mg/kg", "value": 17.9}, {"measurement": "Kp", "setting": "[1]; BALB/c nude, mouse, 30 mg/kg, repeated oral 30 mg/kg, read-out: Cmax of spleen higher than that of plasma", "value": 14.1}, {"measurement": "concentration at 0 h", "setting": "[1]; [11]", "value": "69 ± 44.8", "unit": "ng/g"}, {"measurement": "concentration at 0.25 h", "setting": "[1]; BALB/c nude, mouse, spleen, oral, 30 mg/kg, repeated, 0.25 h, read-out: FM concentration, Spleen", "value": "3700 ± 1440", "unit": "ng/g"}, {"measurement": "concentration at 0.5 h", "setting": "[1]; [11]", "value": "12100 ± 1910", "unit": "ng/g"}, {"measurement": "concentration at 1 h", "setting": "[1]; BALB/c nude, mouse, spleen, oral, 30 mg/kg, repeated, 1 h, read-out: FM concentration, Spleen", "value": "17100 ± 6420", "unit": "ng/g"}, {"measurement": "concentration at 2 h", "setting": "[1]; [11]", "value": "12200 ± 4390", "unit": "ng/g"}, {"measurement": "concentration at 4 h", "setting": "[1]; [11]", "value": "6180 ± 1680", "unit": "ng/g"}, {"measurement": "concentration at 8 h", "setting": "[1]; BALB/c nude, mouse, spleen, oral, 30 mg/kg, repeated, 8 h after the last administration, read-out: FM concentration, Spleen", "value": "2150 ± 1390", "unit": "ng/g"}, {"measurement": "concentration at 12 h", "setting": "[1]; BALB/c nude, mouse, spleen, oral, 30 mg/kg, repeated, 12 h after the last administration, read-out: FM concentration, Spleen", "value": "391 ± 181", "unit": "ng/g"}, {"measurement": "concentration at 0 h", "setting": "[1]; [12]", "value": "71.8 ± 44.3", "unit": "ng/g"}, {"measurement": "concentration at 0.5 h", "setting": "[1]; [12]", "value": "33100 ± 22700", "unit": "ng/g"}, {"measurement": "concentration at 2 h", "setting": "[1]; [12]", "value": "19300 ± 20700", "unit": "ng/g"}, {"measurement": "concentration at 4 h", "setting": "[1]; [12]", "value": "11700 ± 8600", "unit": "ng/g"}, {"measurement": "concentration at 8 h", "setting": "[1]; BALB/c nude, mouse, stomach, oral, 30 mg/kg, repeated, 8 h, read-out: FM concentration, Stomach", "value": "3500 ± 5190", "unit": "ng/g"}, {"measurement": "concentration at 12 h", "setting": "[1]; BALB/c nude, mouse, stomach, oral, 30 mg/kg, repeated, 12 h, read-out: FM concentration, Stomach", "value": "2490 ± 2530", "unit": "ng/g"}, {"measurement": "Cmax", "setting": "[1]; [13]", "value": "1280 ± 455", "unit": "ng/mL"}, {"measurement": "half-life", "setting": "[1]; [13]", "value": "2.85 ± 1.14", "unit": "h"}, {"measurement": "AUC(0-t)", "setting": "[1]; BALB/c nude, mouse, Plasma, repeated oral 30 mg/kg, read-out: AUC0–24 h", "value": "3740 ± 704", "unit": "ng·h/mL"}, {"measurement": "Cmax", "setting": "[1]; [14]", "value": "18100 ± 5680", "unit": "ng/g"}, {"measurement": "half-life", "setting": "[1]; [14]", "value": "2.37 ± 0.58", "unit": "h"}, {"measurement": "Cl", "setting": "[1]; Plasma, repeated oral 30 mg/kg", "value": "137 ± 31.8", "unit": "mL/min/kg"}, {"measurement": "Vdss", "setting": "[1]; Plasma, repeated oral 30 mg/kg", "value": "32.81 ± 11.21", "unit": "L/kg"}, {"measurement": "AUC0–24 h", "setting": "[1]; Spleen, repeated oral 30 mg/kg", "value": "67200.44 ± 11858.88", "unit": "ng^.h/mL"}, {"measurement": "IC50", "setting": "[2]", "value": "0.2 ± 0.01", "unit": "µM"}, {"measurement": "IC50", "setting": "[3]", "value": 557, "unit": "nM"}, {"measurement": "IC50", "setting": "[4]", "value": "0.55 ± 0.13", "unit": "µM"}, {"measurement": "GFP^+ tumor cells in PB", "setting": "[5]; 12 hours after the 17th administration, 30 mg/kg", "value": "11.77 ± 5.5", "unit": "%"}, {"measurement": "GFP^+ tumor cells in PB", "setting": "[5]; [15]", "value": "19.75 ± 12.93", "unit": "%"}, {"measurement": "GFP^+ tumor cells in spleen", "setting": "[5]; [15]", "value": "17.12 ± 8.15", "unit": "%"}, {"measurement": "weight of spleen", "setting": "[5]; repeated administration, 12 hours after the last administration, untreated 267.2 ± 56.8 mg", "value": "167.5 ± 52.9", "unit": "mg"}, {"measurement": "p-STAT5 level down-regulated by", "setting": "[5]; spleen, 8 hours after administration, 30 mg/kg repeated", "value": "43.80 ± 1.59", "unit": "%"}, {"measurement": "spleen suppression rate", "setting": "[6]; 15 mg/kg bid p.o.", "value": -35.67, "unit": "%"}, {"measurement": "median survival time", "setting": "[6]; 15 mg/kg bid p.o.", "value": 22, "unit": "days"}, {"measurement": "spleen suppression rate", "setting": "[6]; 30 mg/kg bid p.o.", "value": -79.79, "unit": "%"}, {"measurement": "median survival time", "setting": "[6]; 30 mg/kg bid p.o.", "value": 25, "unit": "days"}, {"measurement": "spleen suppression rate", "setting": "[6]; 45 mg/kg bid p.o.", "value": -101.08, "unit": "%"}, {"measurement": "median survival time", "setting": "[6]; 45 mg/kg bid p.o.", "value": 25, "unit": "days"}, {"measurement": "visceral toxicity, tissues of treated mice", "setting": "[6]; data not shown", "value": "did not cause obvious visceral toxicity"}, {"measurement": "IC50", "setting": "[7]", "value": "0.01 ± 0.01", "unit": "µM"}, {"measurement": "inhibition of splenomegaly", "setting": "[8]; 15 mg/kg bid p.o.", "value": 97.11, "unit": "%"}, {"measurement": "median survival time", "setting": "[8]; 15 mg/kg bid p.o.", "value": "> 180", "unit": "days"}, {"measurement": "inhibition of splenomegaly", "setting": "[8]; 30 mg/kg bid p.o.", "value": 101.62, "unit": "%"}, {"measurement": "median survival time", "setting": "[8]; 30 mg/kg bid p.o.", "value": "> 180", "unit": "days"}, {"measurement": "inhibition of splenomegaly", "setting": "[8]; 45 mg/kg bid p.o.", "value": 101.24, "unit": "%"}, {"measurement": "median survival time", "setting": "[8]; 45 mg/kg bid p.o.", "value": "> 180", "unit": "days"}, {"measurement": "BM Reticulin, fibrosis grade", "setting": "[8]; 30 mg/kg", "value": "non-MF"}, {"measurement": "BM Reticulin, fibrosis grade", "setting": "[8]; 45 mg/kg", "value": "non-MF"}, {"measurement": "IC50", "setting": "[9]", "value": "< 100", "unit": "nM"}, {"measurement": "IC50", "setting": "[10]", "value": "< 500", "unit": "nM"}]}]}
